According to US20080206203A1, “Method for Inhibiting Tumor Metastasis” (Inflammation Research Center Company Ltd., priority 2004, published 2008):
Read-outs that look alike come from different tables or passages of the source.

Columns and labels:
[1] = test system: infiltration of WBC into the CSF caused by interleukin-6; experiment: interleukin-6-induced infiltration of WBC into the CSF in the intact dog; type: in vivo; conditions: pretreatment, three different doses
Excerpt: Additionally, increased infiltration of WBC into the CSF caused by interleukin-6 were inhibited by pretreatment of pranlukast (administered at three different doses) in the intact dog.

[2] = test system: Colo 201 (colon cancer) cells; experiment: interaction study with Colo201 cancer cells i.v.; type: in vivo, human
Protocol: (§1) To test for inhibition of metastasis, pranlukast is administered orally (instead of intraperitoneally as was done in Example 2) before intravenous injection of the cancer cells. Arachidonic acid (AA) is then administered to the subarachnoid space two hours after pranlukast administration. The volume of CSF, white blood cell counts and cancer cell counts in the CSF are measured every 30 minutes.
(§2) Cultured human cancer cell lines, Colo 201 (colon cancer) and MKN 74 ([…]), and a cultured rat cancer cell line RCN9 were purchased from Health Science Research Resources Bank (Rinku-minamihama 2-11, Sennan-shi, Osaka, 590-0535, Japan). Human lung cancer cell line QG56 was a gift from Dr. Yukito Ichinose, Department of Laboratory Medicine, Kyusyu Cancer Center, Hukuoka, Japan. Cells were cultured at 37° C. and 5% CO2, in RPMI-1640 (SIGMA, MO, USA) supplemented with 5% fetal bovine serum, 2 mM L-glutamine (Gibco), 100 units penicillin, 100 μg/ml streptomycin (Gibco Invitrogen Corp., Grand Island, N.Y., USA).
(§3) Rats were anesthetized by sodium pentobarbital (50 mg/kg i.p.).
(§4) A femoral vein was exposed and a polyethylene tube filled with 0.002% heparin in saline was inserted. The other end of the polyethylene tube was connected to a three way cock valve for the intravenous injection of cancer cells. The animal was then placed in a stereotaxic unit (Type SRS-6 produced by Narishige Scientific Instrument Lab). Fur from the top of the head to the neck was shaved. The study area was disinfected with 70% ethanol. Skin and muscle over the cervical vertebrae were exposed. A hole was made using an 18 G×1 ½ needle passing through the dura via the cisterna magna. One end (2-3 mm) of an SP10 tube (5-6 cm long) was inserted into the subarachnoid space. The cannula was fixed with cyanoacrylic glue to the peripheral tissue. […]
(§5) The volume (μl) of CSF, WBC counts, and cancer cells counts was measured after the 3rd treatment for 8 hours.

[3] = test system: MKN 74 cells; experiment: interaction study with MKN74 cancer cells i.v.; type: in vivo, human; conditions: pranlukast-MKN 74-saline
Protocol: as §1, §2, §3, §4, §5

[4] = test system: MKN 74 (lung cancer) cells; experiment: interaction study with MKN74 cancer cells i.v.; type: in vivo, human; conditions: pranlukast-MKN74-arachidonic acid, 490 mg/kg p.o., rat
Protocol: as §1, §2, §3, §4, §5

[5] = test system: dextran-induced rat paw edema; experiment: dextran-induced rat paw edema; type: in vivo
[6] = test system: mice; conditions: cited from earlier work
[7] = test system: capillary permeability and extravasation of white blood cells and tumor cells from the capillary; experiment: interaction study: arachidonic acid-induced capillary permeability and extravasation into CSF (model of metastasis); type: in vivo, rat
Protocol: as §1, §3
A femoral vein was exposed and a polyethylene tube filled with 0.002% heparin in saline was inserted. The other end of the polyethylene tube was connected to a three way cock valve for the intravenous injection of cancer cells. The animal was then placed in a stereotaxic unit (Type SRS-6 produced by Narishige Scientific Instrument Lab). Fur from the top of the head to the neck was shaved. The study area was disinfected with 70% ethanol. Skin and muscle over the cervical vertebrae were exposed. A hole was made using an 18 G×1 ½ needle passing through the dura via the cisterna magna. One end (2-3 mm) of an SP10 tube (5-6 cm long) was inserted into the subarachnoid space. The cannula was fixed with cyanoacrylic glue to the peripheral tissue. The other end of the SP10 tube was used for administration of arachidonic acid (8.16 ng/2 μl of saline) and subsequently for collecting cerebrospinal fluid (CSF) every thirty minutes thereafter for 1-2 hours in the in vivo morphological study and for 8 hours in the interaction studies.
As a capsule of Onon contains 112.5 mg of pranlukast, the powder from two capsules was stirred in 2.295 ml of deionized water with the electric mixer immediately before oral administration. The volume of administration of pranlukast was 5 ml/kg (dose=490 mg/kg).
The number of cancer cells were prepared to 1/100 of the number of neutrophils in each rat using PBS. Because of body weight (400±50 g), the number of cancer cells were between 1.88×10^4 and 2.43×10^4 and the volume of administration of cancer cell was adjusted to 1 ml for each rat.
Arachidonic acid was dissolved in saline and 816.25 ng/2 μl was administered for each rat.
Three different treatments were administered as follows;
1st treatment was pranlukast (490 mg/kg p.o.) or deionized water (p.o.).
2nd treatment was with cancer cells or PBS
3rd treatment was with arachidonic acid or saline.
The first treatment was administered 2 hours before arachidonic acid. The second treatment (cancer cells i.v.) was administered 2-3 minutes before arachidonic acid. Two canula in each animal to the femoral vein and to the subarachnoid space were inserted between the 1st treatment and 2nd treatment.
The number on the right side of table corresponds to that of the figures for the results. Four rats were used for each group.
as §5
To analyze whether or not human cancer cells, as foreign substances, affect the immune system in rats, each parameter, i.e., white blood cells counts, tumor cells counts and CSF volume with rat cancer cells (RCN9) was compared with the corresponding parameters of COLO201, MKN 74, and QG56, respectively, using area under time action curves and analysis of variance (Dunnet). Probability value was p<0.05 to be significant.

[8] = test system: rats; conditions: cited from earlier work
[9] = in vivo; cited from earlier work
[10] = test system: lung cancer cell line QG56; experiment: interaction study with QG56 cancer cells i.v.; type: in vivo, human
Protocol: as §1, §2, §3, §4, §5

[11] = pranlukast-Colo201-arachidonic acid, 490 mg/kg p.o., rat
[12] = 490 mg/kg p.o., eight hours after arachidonic acid
[13] = pranlukast (490 mg/kg p.o.)-PBS-arachidonic acid (816 ng/2 μl), FIG. 11
[14] = pranlukast-QG56-arachidonic acid, 490 mg/kg p.o., rat

O=C(Nc1cccc2c(=O)cc(-c3nnn[nH]3)oc12)c1ccc(OCCCCc2ccccc2)cc1 [pranlukast]
increased infiltration of WBC into the CSF caused by interleukin-6 [1]: inhibited | extravasation of tumor cells [2, 11]: significantly inhibited | increasing capillary permeability [2, 11]: significantly inhibited | effect when cancer cells present without arachidonic acid ([2]; pranlukast-Colo201-saline): did not have any effect | effect when cancer cells present without arachidonic acid [3]: did not have any effect | extravasation of tumor cells [4]: significantly inhibited | increasing capillary permeability [4]: significantly inhibited | inhibition of dextran-induced paw edema ([5]; about 490 mg/kg, administered intraperitoneally): completely inhibited | inhibition of dextran-caused paw edema ([5]; about 490 mg/kg, administered orally (FIG. 2)): completely inhibited | inhibition of dextran-induced rat paw edema ([5]; dose dependence): inhibited by pranlukast in a dose-dependent fashion | LD50 ([6]; p.o.): > 2000 mg/kg | LD50 ([6]; s.c.): > 2000 mg/kg | area under the time action curve, CSF [7, 12]: zero | area under the time action curve, white blood cell counts [7, 12]: zero | area under the time action curve, tumor cell counts ([7]; 490 mg/kg p.o., eight hours after arachidonic acid, tumor cells i.v.): zero | extravasation of white blood cells caused by arachidonic acid [7, 13]: inhibited | increased capillary permeability caused by arachidonic acid [7, 13]: inhibited | effect of pranlukast by itself on tumor/WBC counts and CSF volume ([7]; pranlukast-PBS-saline, 490 mg/kg p.o., no arachidonic acid): no effect | behavior, changes in body weight, and food intake compared with control group ([8]; repeated administration 30, 100, 300, 1000 mg/kg/day p.o. for three months and six months): normal | urine examination and histopathological examinations ([8]; repeated administration): normal | behavior, changes in body weight, and food intake compared with control group ([8]; single administration 30, 100, 300, 1000 mg/kg p.o.): normal | urine examination and histopathological examinations ([8]; single administration): normal | passage of the blood-brain barrier [9]: does not pass, or passes the blood-brain barrier at most at a very minimal level | extravasation of tumor cells [10, 14]: significantly inhibited | increasing capillary permeability [10, 14]: significantly inhibited | effect when cancer cells present without arachidonic acid ([10]; pranlukast-QG56-saline): did not have any effect
